Results as given in patent US7041698B2, “Hepatitis C virus inhibitors” (Bristol-Myers Squibb Company, priority 2002, dated 2006).

Assays:
[1] = target: T1, human sputum elastase (HS) (Homo sapiens, UniProt P08246); test: Specificity assay, human sputum elastase; assay type: biochemical; settings: 2 hr pre-incubation at RT
T1 construct: purchased Sigma
T1 sequence (P08246 30-267): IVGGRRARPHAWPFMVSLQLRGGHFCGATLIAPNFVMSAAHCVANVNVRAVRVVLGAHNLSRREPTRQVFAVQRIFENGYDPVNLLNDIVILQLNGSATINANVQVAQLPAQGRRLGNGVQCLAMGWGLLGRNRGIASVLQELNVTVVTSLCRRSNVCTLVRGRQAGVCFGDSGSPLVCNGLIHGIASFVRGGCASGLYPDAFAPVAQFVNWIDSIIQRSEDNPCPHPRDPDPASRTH
Description: The specificities of compounds of the present invention were determined against a variety of serine proteases: human sputum elastase (HS), porcine pancreatic elastase (PPE) and human pancreatic chymotrypsin and one cysteine protease: human liver cathepsin B. In all cases a 96-well plate format protocol using calorimetric p-nitroaniline (pNA) substrate specific for each enzyme was used as described previously (Patent WO 00/09543) with some modifications to the serine protease assays. All enzymes were purchased from Sigma while the substrates were from Bachem.
Each assay included a 2 hr enzyme-inhibitor pre-incubation at RT followed by addition of substrate and hydrolysis to ˜30% conversion as measured on a Spectramax Pro microplate reader. Compound concentrations varied from 100 to 0.4 μM depending on their potency. […]
The percentage of inhibition was calculated using the formula: [1-((UVinh−UVblank)/(UVctl−UVblank))]×100 […]

[2] = target: T2, HCV NS3/4A protease complex (UniProt P27958, C1454S/C1711G, species not given); test: Recombinant HCV NS3/4A protease complex FRET peptide assay (strain not stated); assay type: biochemical; settings: read-out: IC50 range, HCV NS3/4A protease enzyme assay
T2 construct: fused on or other part: Three-lysine solubilising tail at the C-terminus of NS4A

## C=CC1C[C@]1(NC(=O)[C@@H]1C[C@@H](OC(=O)Nc2ccccc2-c2ccccc2)CN1C(=O)[C@@H](NC(=O)OC(C)(C)C)C(C)(C)C)C(=O)NS(=O)(=O)C1CC1 (stereo partly drawn) [Compound 8, BocNH-P3(t-BuGly)-P2(Hyp(O—CO(NH-biphen-2-yl)))-P1(1R,2S VinylAcca)—CONHSO2Cyclopropane]
[1]
  IC50: > 100 µM
[2]
  IC50: < 0.1 µM
